Measurements taken from US11471460B2, “Autophagy modulators for use in treating cancer” (The United States of America,as represented by the …, priority 2017, dated 2022).
Where two headings read alike, the source gives them in different places.

Legend:
[1] = test system: melanoma A375 cells; experiment: A375 cell proliferation (crystal violet plate assay); type: cell-based, human
[2] = test system: osteosarcoma U2OS cells; experiment: Induction of cytoplasmic vacuoles (enlarged lysosomes) in U2OS cells, light microscopy; type: cell-based, human; conditions: for Concentration to induce LC3-II accumulation, inhibit proliferation or viability relative to concentration to observe vacuolization: same U2OS cells
Source text: Vehicle is the concentration of DMSO that was introduced by addition of compounds.
These effects are dependent on the compound selected, its concentration and the length of time cells are exposed to the compound.
(§1) Cells were obtained from the American Type Culture Collection. BORCS5-KO HeLa cells have been described previously. Osteosarcoma U2OS were routinely seeded in 6-well plates (0.5×10^5 cells/well) and cultured in Dulbecco's Modified Eagle's medium supplemented with L-Glutamine, 4.5 g/L Glucose, Sodium Pyruvate, Phenol Red, and either heat-inactivated or normal 10% fetal calf serum at 37° C. in 5% CO2. Approximately 15-19 hours later, the indicated compound was added in 1:1000 dilutions. Results were the same using either heat-inactivated or normal fetal calf serum. Melanoma A375, embryonic kidney 293T and human foreskin fibroblast Hs27 cells were cultured in the same medium, except that cells were seeded into 12-well plates at 10^3 cells/well.
Phase contrast photographs were taken on an Olympus CKX41 microscope. Confocal photographs were taken on a Leica TCS-SP5II. For immunofluorescence microscopy, the cells were fixed in 4% paraformaldehyde (Electron Microscopy Sciences, 15714) in PBS for 12 min, permeabilized with 0.2% Triton X-100 in PBS for 10 min, and blocked in 0.2% BSA (Sigma-Aldrich, A7030) in PBS for 30 min at 37° C. For endogenous LC3 staining, cells were permeabilized in methanol for 20 min at −20° C. after the paraformaldehyde fixation. The cells were sequentially incubated with primary antibodies (LAMP1: Developmental Studies Hybridoma Bank; LC3 and LAMTOR4: Cell Signaling Technology; FLAG epitope: Sigma-Aldrich) and secondary antibodies conjugated to Alexa Fluor dyes (Life Technologies) diluted with 0.2% BSA in PBS for 30 min at 37° C. Coverslips were mounted on glass slides using Fluoromount-G (Electron Microscopy Sciences, 17984-24). Cells were imaged using a Zeiss LSM880 with AiryScan confocal microscope (Carl Zeiss AG, Oberkochen, Germany) or a Leica TCS-SP5II. The final composite images were created and properly analyzed for lysosomal size examination using ImageJ (NIH).

[3] = test system: LC3-II and p62 in U2OS cells; experiment: Accumulation of autophagosome markers LC3-II and p62, Western immuno-blotting; type: cell-based, human; conditions: U2OS cells
Protocol: Cells were cultured for 4 hrs before total cell extracts were subjected to Western immuno-blotting for LC3, p62 and β-actin. Blot was developed with film. […] (C) U2OS cells were cultured for the times indicated in the presence of 1.2 μM compound 1 to produce 80% of the maximum observed in FIG. 10A. Total cell extracts were assayed at the times indicated. […] All blots were stained with Ponceau S […].
Total cell lysates were prepared (in 4× dye). Proteins were fractionated at 200V in a NuPAGE 4-12% bis-tris polyacrylamide gel (NP0323, Novex) using NuPAGE MES running buffer (NP0002, Novex) and then stained with PageBlue (24260, Thermo Scientific) in order to quantify the relative amount of histones in each sample. […] Proteins were wet-transferred onto nitrocellulose membranes (162-0112, Bio-Rad) using NuPAGE transfer buffer (NP-0006-1, Novex) for 1 hour at 30V. Membranes were then stained with dilute Ponceau S solution, blocked in 5% milk for 30 minutes at room temperature, and incubated overnight at 4° C. in primary antibody. Membranes were washed with phosphate buffered saline with tween 20 (PBST) three times for 10 min. each, incubated with secondary antibodies in 5% milk for 1 hour, washed three times with PBST again, covered in ECL (SuperSignal West Pico chemiluminescent substrate, 34080, Thermo Scientific) and exposed to film (HyBlot ES, E3218, Denville Scientific).

[4] = test system: embryonic kidney cells; experiment: Viability of embryonic kidney cells; type: cell-based; conditions: Homo sapiens
Protocol: (§2) FIG. 18 summarizes results from 13 human cell lines. All cells were seeded at the same cell density in a rich culture medium and assayed under identical conditions. Compound 1 efficacy is the ratio of cell viability with compound 1 to cell viability with chloroquine derivatives.
as §1, with “Results were the same using either heat-inactivated or normal fetal calf serum.” left out

[5] = test system: breast adenocarcinoma cells; experiment: Viability of breast adenocarcinoma cells; type: cell-based; conditions: Homo sapiens
Protocol: as §2

[6] = test system: melanoma A375 cells; experiment: Cytoplasmic vacuolization of A375 cells; type: cell-based, human
[7] = test system: human foreskin fibroblasts; experiment: Proliferation/viability of human foreskin fibroblasts; type: cell-based; conditions: Fibroblast
Protocol: Concentration of each compound in the plate assay is indicated below the compound 1 plate.
as §1, with “Results were the same using either heat-inactivated or normal fetal calf serum.” left out

[8] = target: T1, PIKFYVE (Homo sapiens, UniProt Q9Y2I7); experiment: DiscoverX KINOMEscan dissociation constant; type: binding
T1 construct: purchased DiscoverX (KINOMEscan service, San Diego, Calif.)
Protocol: Each kinase was tagged with a unique DNA sequence that allowed the amount of protein bound to the solid support to be quantified by PCR. The top three targets for compound 1 were PIKFYVE, PIP4K2C and MTOR. […] Dissociation constants (Kd) were determined from the amount of kinase captured on the solid support as a function of the test compound concentration (nM) on a log10 scale. Mean Kd values (±range) are given for each compound. The ratio of PIP4K2C to PIKFYVE indicates the relative specificity for these two kinases.
To address this hypothesis, a panel of 468 human kinases were screened for their ability to bind compound 1. […] The top two candidates were PIKFYVE (phosphoinositide kinase FYVE-type zinc finger containing) and PIP4K2C (phosphatidylinositol-5-phosphate 4-kinase). PIKFYVE is a kinase that is essential for mouse development (49) and that prevents endosome enlargement and cytoplasmic vacuolization (50, 51). PIP4K2C is a kinase that is not essential for mouse growth and viability, but it is essential for the immune system (52), mTORC1 signaling (53), and regulation of autophagy (54). The third candidate was MTOR, a kinase that regulates autophagy (55). Therefore, the binding constants (Kd) for all five members of the compound 1-family were determined for each of these three proteins from two independent titration curves, as shown for compound 1.

T1 sequence (Q9Y2I7 whole entry): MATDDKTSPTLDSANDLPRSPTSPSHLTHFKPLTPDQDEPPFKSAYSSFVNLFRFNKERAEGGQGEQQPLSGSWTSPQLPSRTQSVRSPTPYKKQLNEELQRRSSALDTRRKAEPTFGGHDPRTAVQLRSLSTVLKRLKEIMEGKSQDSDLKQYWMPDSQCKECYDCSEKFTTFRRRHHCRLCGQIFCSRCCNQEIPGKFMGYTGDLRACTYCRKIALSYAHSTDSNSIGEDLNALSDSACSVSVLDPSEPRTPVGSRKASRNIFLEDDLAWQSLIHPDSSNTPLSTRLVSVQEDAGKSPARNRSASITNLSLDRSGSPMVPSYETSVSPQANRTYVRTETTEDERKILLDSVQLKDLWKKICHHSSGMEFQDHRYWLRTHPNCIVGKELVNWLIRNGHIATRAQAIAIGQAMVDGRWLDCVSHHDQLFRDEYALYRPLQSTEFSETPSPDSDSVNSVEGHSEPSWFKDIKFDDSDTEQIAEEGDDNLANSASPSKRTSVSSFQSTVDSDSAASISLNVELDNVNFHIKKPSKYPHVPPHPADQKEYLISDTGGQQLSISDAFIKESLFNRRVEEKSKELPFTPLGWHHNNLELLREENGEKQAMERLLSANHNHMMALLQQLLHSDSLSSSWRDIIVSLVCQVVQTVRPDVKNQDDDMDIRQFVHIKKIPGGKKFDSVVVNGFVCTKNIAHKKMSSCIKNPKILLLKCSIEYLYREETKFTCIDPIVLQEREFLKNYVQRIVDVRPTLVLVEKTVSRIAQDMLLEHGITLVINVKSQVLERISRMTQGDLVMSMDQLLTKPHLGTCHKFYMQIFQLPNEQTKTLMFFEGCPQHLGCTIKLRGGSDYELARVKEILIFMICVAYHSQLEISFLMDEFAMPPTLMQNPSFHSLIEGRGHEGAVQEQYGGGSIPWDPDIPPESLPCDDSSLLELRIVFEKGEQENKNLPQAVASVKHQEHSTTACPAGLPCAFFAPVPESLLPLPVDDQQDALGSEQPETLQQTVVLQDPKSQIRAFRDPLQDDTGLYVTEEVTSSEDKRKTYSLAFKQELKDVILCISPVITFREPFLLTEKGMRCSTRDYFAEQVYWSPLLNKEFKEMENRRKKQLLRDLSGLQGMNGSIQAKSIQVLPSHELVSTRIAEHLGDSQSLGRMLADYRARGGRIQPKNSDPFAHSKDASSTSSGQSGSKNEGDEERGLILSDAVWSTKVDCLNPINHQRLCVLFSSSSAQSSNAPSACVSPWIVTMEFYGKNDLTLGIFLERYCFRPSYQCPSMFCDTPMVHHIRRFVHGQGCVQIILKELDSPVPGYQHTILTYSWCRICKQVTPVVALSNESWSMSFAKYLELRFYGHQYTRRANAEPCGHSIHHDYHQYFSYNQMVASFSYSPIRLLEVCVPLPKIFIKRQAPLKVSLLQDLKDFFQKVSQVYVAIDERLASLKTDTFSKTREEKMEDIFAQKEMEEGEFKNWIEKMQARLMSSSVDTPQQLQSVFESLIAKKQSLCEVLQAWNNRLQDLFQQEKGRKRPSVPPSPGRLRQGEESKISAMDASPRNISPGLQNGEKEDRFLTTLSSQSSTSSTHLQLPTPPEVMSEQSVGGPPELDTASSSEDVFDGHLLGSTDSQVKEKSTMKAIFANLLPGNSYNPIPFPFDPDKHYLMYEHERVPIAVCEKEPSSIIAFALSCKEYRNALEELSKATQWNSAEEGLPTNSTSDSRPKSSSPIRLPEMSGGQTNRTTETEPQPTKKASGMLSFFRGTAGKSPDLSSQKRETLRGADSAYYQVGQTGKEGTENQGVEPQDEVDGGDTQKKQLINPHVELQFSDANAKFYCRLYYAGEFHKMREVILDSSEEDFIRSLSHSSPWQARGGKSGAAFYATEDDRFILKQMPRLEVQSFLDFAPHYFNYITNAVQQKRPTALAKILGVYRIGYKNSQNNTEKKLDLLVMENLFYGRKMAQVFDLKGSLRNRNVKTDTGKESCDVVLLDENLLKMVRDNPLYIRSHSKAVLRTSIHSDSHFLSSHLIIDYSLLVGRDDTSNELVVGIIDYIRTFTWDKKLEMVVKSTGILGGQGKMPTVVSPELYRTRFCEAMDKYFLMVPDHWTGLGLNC

For Cc1cccc(/C=N/Nc2cc(N3CCOCC3)nc(OCCc3ccccn3)n2)c1 [Apilimod], the “Inhibition of proliferation of melanoma A375 cells” value (from here on “Inhibition”) [1] was “effective”.

CO/C1=C\C(C)=C\[C@@H](C)[C@@H](O)[C@@H](C)C/C(C)=C/C=C/[C@H](OC)[C@@H]([C@@H](C)[C@@H](O)[C@H](C)[C@@]2(O)C[C@@H](O)[C@H](C)[C@@H](C(C)C)O2)OC1=O [BafA1, Bafilomycin-A1, reference compound] was tested, and the “Induction of vacuoles / enlarged lysosomes” value ([2]; U2OS cells) was “did not induce formation of enlarged lysosomes”, the “Effect on vacuole accumulation induced by the compounds of the invention” value ([2]; U2OS cells, BafA1 together with compound 1) was “prevented induction of vacuole accumulation” and the “Accumulation of LC3-II” value [3] was “induced the accumulation of LC3-II”.

CCN(CC)CCCC(C)Nc1ccnc2cc(Cl)ccc12 (stereo not shown) [CQ, chloroquine] was tested, and the EC50 [4] was > 10 µM, the EC50 [5] was > 10 µM and the “Cytoplasmic vacuolization of A375 cells” value [6] was “not observed”. For the same compound, the “Inhibition” value [1] was “inhibited A375 cell proliferation” and the EC50 ([7]; Homo sapiens) was > 10 µM.

With CCN(CCO)CCCC(C)Nc1ccnc2cc(Cl)ccc12 (stereo not shown) [HCQ, hydroxychloroquine] the EC50 ([4]; embryonic kidney cells, read-out: EC50) was > 10 µM, the EC50 ([5]; breast adenocarcinoma cells, read-out: EC50) was > 10 µM and the “Cytoplasmic vacuolization of A375 cells” value [6] was “not observed”. For the same compound, the “Inhibition” value [1] was “inhibited A375 cell proliferation” and the EC50 ([7]; human foreskin fibroblasts, read-out: EC50) was > 10 µM.

Ic1cccc(/C=N/Nc2nc(N3CCOCC3)nc(N(c3ccccc3)c3ccccc3)n2)c1 [Vacuolin] was tested, and the “Inhibition” value [1] was “effective”.

Nc1ccc(C(=O)Nc2cccc(-c3nc(N4CCOCC4)c4oc5ncccc5c4n3)c2)cn1 [YM201636] was tested, and the “Inhibition” value [1] was “effective”.

With Fc1ccc(Nc2nc(N3CCOCC3)nc(N3CCOCC3)n2)cc1Cl [compound 2] the “Concentration to induce LC3-II accumulation, inhibit proliferation or viability relative to concentration to observe vacuolization” value [2] was “two to three-fold”.

With CCc1ccc(Nc2nc(N3CCOCC3)nc(N3CCOCC3)n2)cc1 [compound 3] the Kd ([8]; mean of two independent titration curves) was 0.016 µM and the “Concentration to induce LC3-II accumulation, inhibit proliferation or viability relative to concentration to observe vacuolization” value [2] was “two to three-fold”.

Cc1cccc(/C=N/Nc2cc(N3CCOCC3)nc(N3CCOCC3)n2)c1 [compound 4] was tested, and the “Standing within the family for PIKFYVE binding” value [8] was “the most specific” and the “Concentration to induce LC3-II accumulation, inhibit proliferation or viability relative to concentration to observe vacuolization” value [2] was “about 10 fold”.

In the case of C(=N\Nc1cc(N2CCOCC2)nc(N2CCOCC2)n1)/c1ccccc1 [compound 5], the “Concentration to induce LC3-II accumulation, inhibit proliferation or viability relative to concentration to observe vacuolization” value [2] is reported as “about 15 fold”.
